# Data: US8173638B2 (Boehringer Ingelheim International GmbH, priority 2006, dated 2012)
# Molecular target: T1, human CB2R (Homo sapiens, UniProt P34972)
# T1 construct: host or cells: CHO cells
# Assay: CB2R mediated modulation of cAMP synthesis
# Format: cell-based
# Settings: for agonistic activity: found through the use of the described assays (CB2 agonists), qualitative statement; for Emax: 0.5 h, CHO cells expressing human CB2R, cAMP inhibited by 1 uM CP55940 defined as 100%, read-out: Agonist Efficacy (%); for EC50: read-out: hCB2 cAMP EC50
# Method in brief: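 Forskolin (10 uM)-driven cAMP in human CB2R-expressing CHO cells, read with DiscoverX-XS kit after 30 min compound exposure at 37 °C, 1 mM IBMX, 0.25% BSA. 100% defined as forskolin cAMP relative to 1 uM CP55940 inhibition. Agonist EC50 via four-parameter logistic model.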
# T1 sequence (P34972 whole entry): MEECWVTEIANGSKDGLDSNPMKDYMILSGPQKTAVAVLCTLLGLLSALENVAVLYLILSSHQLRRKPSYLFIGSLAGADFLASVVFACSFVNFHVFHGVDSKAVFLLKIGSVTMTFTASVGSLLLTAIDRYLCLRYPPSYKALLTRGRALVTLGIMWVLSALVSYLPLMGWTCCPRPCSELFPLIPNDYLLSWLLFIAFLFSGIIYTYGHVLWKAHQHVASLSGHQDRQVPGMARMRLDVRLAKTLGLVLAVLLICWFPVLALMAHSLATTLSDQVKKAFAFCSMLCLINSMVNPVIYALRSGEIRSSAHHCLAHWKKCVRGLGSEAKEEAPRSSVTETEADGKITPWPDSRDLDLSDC
SMILES,agonistic activity,Emax,EC50
"CC(c1ccc(NC(=O)N2CCCN(C(=O)N3CCS(=O)(=O)CC3)CC2)cc1)C(F)(F)F (stereo not shown) [4-(1,1-Dioxo-1λ^6-thiomorpholine-4-carbonyl)-[1,4]diazepane-1-carboxylic acid [4-(2,2,2-trifluoro-1-methyl-ethyl)-phenyl]-amide]",agonistic activity,,
"CC(C)(C)c1cc(NC(=O)N2CCCN(C(=O)C3CCCNC3)CC2)no1 (stereo not shown) [4-(Piperidine-3-carbonyl)-[1,4]diazepane-1-carboxylic acid (5-tert-butyl-isoxazol-3-yl)-amide]",agonistic activity,,
"O=C(Nc1ccc2ccccc2c1)N1CCCN(C(=O)c2cc(Cl)ccc2Cl)CC1 [Compound 90, 4-(2,5-Dichloro-benzoyl)-[1,4]diazepane-1-carboxylic acid naphthalen-2-ylamide]",,91%,0.02 µM
"CCCCc1ccc(NC(=O)N2CCCN(C(=O)CCC(C)C)CC2)cc1 [4-(4-Methyl-pentanoyl)-[1,4]diazepane-1-carboxylic acid (4-butyl-phenyl)-amide]",agonistic activity,,
"CC(C)CCC(=O)N1CCCN(C(=O)Nc2ccc3ccccc3c2)CC1 [Compound 94, 4-(4-Methyl-pentanoyl)-[1,4]diazepane-1-carboxylic acid naphthalen-2-ylamide]",,98%,0.089 µM
"O=C(Nc1ccc(C(F)(F)F)cn1)N1CCCN(C(=O)C2CCOCC2)CC1 [4-(Tetrahydro-pyran-4-carbonyl)-[1,4]diazepane-1-carboxylic acid (5-trifluoromethyl-pyridin-2-yl)-amide]",agonistic activity,,
"CC(C)(C)c1cc(NC(=O)N2CCCN(C(=O)C3CCOC3)CC2)no1 (stereo not shown) [4-(Tetrahydro-furan-3-carbonyl)-[1,4]diazepane-1-carboxylic acid (5-tert-butyl-isoxazol-3-yl)-amide]",agonistic activity,,
"CN(C)c1ccc(C(=O)N2CCCN(C(=O)Nc3ccc4ccccc4c3)CC2)cc1 [4-(4-Dimethylamino-benzoyl)-[1,4]diazepane-1-carboxylic acid naphthalen-2-ylamide]",agonistic activity,,
"CC(C)(C)c1cc(NC(=O)N2CCCN(C(=O)N3CCC(F)(F)CC3)CC2)no1 [4-(4,4-Difluoro-piperidine-1-carbonyl)-[1,4]diazepane-1-carboxylic acid (5-tert-butyl-isoxazol-3-yl)-amide]",agonistic activity,,
"CCCCc1ccc(NC(=O)N2CCCN(C(=O)C3CCOCC3)CC2)cc1 [4-(Tetrahydro-pyran-4-carbonyl)-[1,4]diazepane-1-carboxylic acid (4-butyl-phenyl)-amide]",agonistic activity,,
"O=C(CC1CCCC1)N1CCCN(C(=O)Nc2ccc3ccccc3c2)CC1 [Compound 48, 4-(2-Cyclopentyl-acetyl)-[1,4]diazepane-1-carboxylic acid (2-naphthyl)-amide]",,100%,0.053 µM
"CC(C)(C)c1ccc(NC(=O)N2CCCN(C(=O)N3CCS(=O)(=O)CC3)CC2)cc1 [4-(1,1-Dioxo-1λ^6-thiomorpholine-4-carbonyl)-[1,4]diazepane-1-carboxylic acid (4-tert-butyl-phenyl)-amide]",agonistic activity,,
CC(C)(C)c1cc(NC(=O)N2CCCN(C(=O)NC3CCOCC3)CC2)no1,agonistic activity,,
"CCc1ccnc(NC(=O)N2CCCN(C(=O)C3CCOCC3)CC2)c1 [4-(Tetrahydro-pyran-4-carbonyl)-[1,4]diazepane-1-carboxylic acid (4-ethyl-pyridin-2-yl)-amide]",agonistic activity,,

# The remaining lines, values ahead:
agonistic activity,Emax,EC50,SMILES
agonistic activity,,,"O=C(Nc1ccc2ccccc2c1)N1CCCN(C(=O)C2CCCCC2)CC1 [4-Cyclohexanecarbonyl-[1,4]diazepane-1-carboxylic acid naphthalen-2-ylamide]"
agonistic activity,,,"CC(C)(C)c1cc(NC(=O)N2CCCN(C(=O)N3CCOCC3)CC2)on1 [4-(Morpholine-4-carbonyl)-[1,4]diazepane-1-carboxylic acid (3-tert-butyl-isoxazol-5-yl)-amide]"
agonistic activity,,,"O=C(Nc1nc2c(s1)CCCC2)N1CCCN(C(=O)N2CCS(=O)(=O)CC2)CC1 [4-(1,1-Dioxo-1λ^6-thiomorpholine-4-carbonyl)-[1,4]diazepane-1-carboxylic acid (4,5,6,7-tetrahydro-benzothiazol-2-yl)-amide]"
agonistic activity,,,"O=C(Nc1ccc(C(F)(F)F)cc1)N1CCCN(C(=O)C2CCOCC2)CC1 [4-(Tetrahydro-pyran-4-carbonyl)-[1,4]diazepane-1-carboxylic acid (4-trifluoromethyl-phenyl)-amide]"
agonistic activity,,,"O=C(CCC1CCCC1)N1CCCN(C(=O)Nc2ccc3ccccc3c2)CC1 [4-(3-Cyclopentyl-propionyl)-[1,4]diazepane-1-carboxylic acid naphthalen-2-ylamide]"
agonistic activity,,,"N#Cc1ccc(NC(=O)N2CCCN(C(=O)CCC3CCCC3)CC2)cc1 [4-(3-Cyclopentyl-propionyl)-[1,4]diazepane-1-carboxylic acid (4-cyano-phenyl)-amide]"
agonistic activity,,,Cc1onc(NC(=O)N2CCCN(C(=O)C3CCOCC3)CC2)c1C
agonistic activity,,,"CCCCc1ccc(NC(=O)N2CCCN(C(=O)c3ccccc3)CC2)cc1 [4-Benzoyl-[1,4]diazepane-1-carboxylic acid (4-butyl-phenyl)-amide]"
,94%,0.1 µM,"CC(C)(C)c1ccc(NC(=O)N2CCCN(C(=O)CC3CCCCC3)CC2)cc1 [Compound 107, 4-(2-Cyclohexyl-acetyl)-[1,4]diazepane-1-carboxylic acid (4-tert-butyl-phenyl)-amide]"
,73%,0.048 µM,"CCCCCc1ccc(NC(=O)N2CCCN(C(=O)CC3CCCC3)CC2)cc1 [Compound 49, 4-(2-Cyclopentyl-acetyl)-[1,4]diazepane-1-carboxylic acid (4-n-pentyl-phenyl)-amide]"
agonistic activity,,,"O=C(CC1CCCC1)N1CCCN(C(=O)Nc2cc(Cl)ccc2Cl)CC1 [4-(2-Cyclopentyl-acetyl)-[1,4]diazepane-1-carboxylic acid (2,5-dichloro-phenyl)-amide]"
,99%,0.012 µM,"O=C(Nc1ccc(SC(F)(F)F)cc1)N1CCCN(C(=O)C2CCCCC2)CC1 [Compound 80, 4-Cyclohexanecarbonyl-[1,4]diazepane-1-carboxylic acid (4-trifluoromethylsulfanyl-phenyl)-amide]"
agonistic activity,,,"O=C(Nc1ccc2ccccc2c1)N1CCCN(C(=O)c2ccc(C(F)(F)F)cc2)CC1 [4-(4-Trifluoromethyl-benzoyl)-[1,4]diazepane-1-carboxylic acid naphthalen-2-ylamide]"
agonistic activity,,,"CC(C)(C)c1ccc(NC(=O)N2CCCN(C(=O)CN3CCCCC3)CC2)cc1 [4-(2-Piperidin-1-yl-acetyl)-[1,4]diazepane-1-carboxylic acid (4-tert-butyl-phenyl)-amide]"
